Entries after “also recorded” stand apart in the source; their conditions may differ.
Assays:
cag T4SS [1] = assay: CagA translocation assay (tyrosine-phosphorylated CagA immunoblot); type: cell-based, H. pylori; conditions: 150 μM; compared to vehicle-only and GKP42-treated controls
cag T4SS [2] = assay: NF-κB luciferase reporter activation by H. pylori in AGS cells; type: cell-based; conditions: for cag T4SS-dependent NF-κB activation: WT H. pylori, AGS NF-κB-luc cells; for cag T4SS-mediated NF-κB activation by H. pylori strains of different phylogeographic origins: multiple H. pylori strains
Description: Quantitation of NF-κB signaling activation. AGS cells stably transfected with an NF-κB-luciferase reporter (AGS NF-κB-luc) were cultured for 24 h and treated as described for the IL-8 induction studies. After 4 h co-culture with H. pylori, cell monolayers were washed with sterile PBS, and cell monolayer extracts were obtained by passive cell lysis. NF-κB-luciferase activity was measured by the Steady-Glo Luciferase Assay System (Promega) on a BioTek Synergy 4 plate reader, and plates were normalized to the DMSO vehicle control for each dilution series.

[3] = test system: IncF group R1-16 conjugative T4SS; assay: DNA conjugation efficiency, R1-16; conditions: 150 μM
Description: (§1) Analysis of DNA conjugation efficiency. Overnight cultures of donor E. coli MG1655 harboring pKM101, donor E. coli MS411 harboring R1-16, and recipient E. coli MG1655 (WM1652) were grown at 37° C. with shaking at 225 rpm in LB/antibiotic, were diluted in antibiotic-free LB containing DMSO or 150 μM compound, and incubated with shaking at 37° C. to reach an OD600 of ˜0.3. Donor and recipient cells were mixed at a ratio of 1:1 on 0.22 μM pore size mixed cellulose ester filters (Millipore) on antibiotic-free LB plates for 2 h at 37° C. Filters were aseptically removed from LB plates and incubated in 100 μl antibiotic-free LB to dislodge E. coli from membranes. Serial dilutions were plated on the appropriate antibiotic (or dual antibiotic) LB plates to determine the number of donor, recipient, and transconjugant cells. Colonies were enumerated after 24 h, and conjugation efficiencies were calculated by dividing the average number of transconjugates by the average number of donors (either pKM101 or R1-16 donor cells). Conjugation efficiency in the presence of compound is expressed as a percentage of conjugation efficiency in DMSO.

TLR9 = target: T1, TLR9 (Homo sapiens, UniProt Q9NR96); assay: TLR9 activation by CpG ODN (control); type: cell-based; conditions: 50 μM
T1 construct: host or cells: HEK293-TLR9 reporter cell line
T1 sequence (Q9NR96 26-1032): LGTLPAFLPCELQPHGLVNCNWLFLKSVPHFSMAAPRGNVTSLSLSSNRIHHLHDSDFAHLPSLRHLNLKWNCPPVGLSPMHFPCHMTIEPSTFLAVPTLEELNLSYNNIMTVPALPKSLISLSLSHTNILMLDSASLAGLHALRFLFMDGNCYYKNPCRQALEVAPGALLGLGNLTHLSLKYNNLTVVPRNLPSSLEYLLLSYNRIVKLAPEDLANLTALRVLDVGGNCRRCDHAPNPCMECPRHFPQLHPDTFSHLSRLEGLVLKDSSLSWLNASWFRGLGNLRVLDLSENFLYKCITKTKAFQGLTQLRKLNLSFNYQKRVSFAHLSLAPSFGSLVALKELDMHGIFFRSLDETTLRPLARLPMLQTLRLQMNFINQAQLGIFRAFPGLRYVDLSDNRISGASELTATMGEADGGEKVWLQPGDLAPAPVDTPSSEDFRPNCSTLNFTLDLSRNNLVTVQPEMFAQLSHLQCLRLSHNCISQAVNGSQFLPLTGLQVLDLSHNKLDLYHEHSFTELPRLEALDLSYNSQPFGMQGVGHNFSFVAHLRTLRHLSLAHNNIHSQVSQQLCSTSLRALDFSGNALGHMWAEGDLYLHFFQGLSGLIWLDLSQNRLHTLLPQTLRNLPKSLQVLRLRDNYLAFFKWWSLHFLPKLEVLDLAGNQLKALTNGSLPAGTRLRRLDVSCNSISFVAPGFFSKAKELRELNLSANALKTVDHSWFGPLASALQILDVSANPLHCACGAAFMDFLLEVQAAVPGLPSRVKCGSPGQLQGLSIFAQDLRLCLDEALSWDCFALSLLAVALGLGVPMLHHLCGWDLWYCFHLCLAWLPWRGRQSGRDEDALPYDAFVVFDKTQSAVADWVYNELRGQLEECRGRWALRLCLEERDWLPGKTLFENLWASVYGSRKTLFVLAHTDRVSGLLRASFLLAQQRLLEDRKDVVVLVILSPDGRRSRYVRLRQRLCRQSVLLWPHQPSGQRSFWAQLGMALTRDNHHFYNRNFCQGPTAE
Description: Inhibition of T4SS-dependent activation of human TLR9 signaling by H. pylori. H. pylori strain J166 was grown in broth culture overnight, and was subsequently pre-treated in the indicated compound at a final concentration of 50 μM, or in an equivalent volume of DMSO vehicle for 30 min prior to inoculating cultured HEK293-TLR9 reporter cell lines. Co-cultures were incubated in the presence of 50 μM compound or an equivalent volume of DMSO vehicle supplemented in the cell culture media for the duration of incubation (18 hours). TLR9 activation was assayed using a colorimetric assay (Invivogen), and TLR9 activation in the presence of type IV secretion system (T4SS) inhibitor compounds is expressed as a percentage of TLR9 activation by H. pylori in the presence of vehicle. As a control, TLR9 was activated with the immunostimulatory synthetic ligand CpG oligodeoxynucleotide (CpG ODN) in the presence of DMSO or inhibitor compound at 50 μM final concentration.

H. pylori = H. pylori viability (cellular ATP, CellTiter-Glo); type: cell-based; conditions: concentrations up to 150 μM
H. pylori cag T4SS = type: cell-based; conditions: for T4SS-dependent activation of TLR9 by H. pylori: strain J166 pre-treated 30 min, 50 μM, 18 hours
[4] = test system: IncN group conjugative T4SS encoded by pKM101; assay: DNA conjugation efficiency, pKM101; conditions: 150 μM, compared to vehicle controls
Description: as §1

cag T4SS [5] = type: cell-based, H. pylori; conditions: for LogEC50, attenuation of cag T4SS-dependent IL-8 secretion / EC50: 4.5 h co-culture, normalized IL-8 secretion, non-linear regression; for cag T4SS-dependent IL-8 secretion: H. pylori-gastric epithelial cell co-culture, 25-150 μM; for EC50: read-out: EC50, attenuation of cag T4SS-dependent IL-8 secretion
cag T4SS pili = assay: Scanning electron microscopy of cag T4SS pili; type: cell-based, H. pylori; conditions: 150 μM, SEM
Description: Scanning electron microscopy. Overnight cultures of H. pylori were diluted to OD600˜0.3 and incubated with shaking at 37° C., 5% CO2 for 1 h in the presence of vehicle or 150 μM compound and co-cultured with AGS cells on tissue culture-treated coverslips (BD Biosciences) at an MOI of 100 in the presence of 150 μM compound or vehicle. H. pylori-AGS cell co-cultures were processed and imaged.
Field emission gun scanning electron microscopy. Samples were fixed with 2.0% paraformaldehyde, 2.5% glutaraldehyde in 0.05 M sodium cacodylate buffer, and secondarily fixed with 0.1% osmium tetroxide. Sequential dehydration was performed by washing with increasing concentrations of ethanol. Samples were dried at the critical point with a Tousimis critical point dryer. Coverslips were mounted onto aluminum stubs and sputter coated with gold-palladium and imaged with an FEI Quanta 250 FEG-SEM.

Row | Compound | amount of tyrosine-phosphorylated CagA in cultured gastric epithelial cells (cag T4SS [1]) | cag T4SS-dependent NF-κB activation (cag T4SS [2]) | cag T4SS-mediated NF-κB activation by H. pylori strains of different phylogeographic origins (cag T4SS [2]) | NF-κB activation by H. pylori ΔcagA mutant compared to WT strain (cag T4SS [2]) | DNA conjugation efficiency of the de-repressed R1-16 system [3] | activation of TLR9 by CpG ODN (TLR9) | viability of bacterial cells (H. pylori) | T4SS Inhibiton [50 μM] (TLR9 Activation Assay) (H. pylori cag T4SS; no bacterial pre-treatment, about 18 hours post-infection, HEK293-TLR9 cells) | T4SS-dependent activation of TLR9 by H. pylori (H. pylori cag T4SS) | DNA conjugation efficiency of pKM101 [4] | LogEC50, attenuation of cag T4SS-dependent IL-8 secretion (cag T4SS [5]) | cag T4SS-dependent IL-8 secretion (cag T4SS [5]) | EC50 (cag T4SS [5]) | cag T4SS pilus formation at the bacteria-host cell interface (cag T4SS pili)
1 | O=C(O)[C@@H]1CSc2c(C3CC3)c(Cc3cccc4ccccc34)cc(=O)n21 [Compound C10, (3R)-8-cyclopropyl-7-(naphthalen-1-ylmethyl)-5-oxo-3,5-dihydro-2H-thiazolo[3,2-a]pyridine-3-carboxylic acid] | significantly reduced | significantly reduced | inhibited | the same as those observed in the WT strain | reduced DNA transfer | not by CpG ODN | did not impact viability | ++ | inhibit | reduced | −1.19 | significantly reduced | 64.5 µM | –
2 | COc1ccc(Cc2cc(=O)n3c(c2C2CC2)SC[C@H]3C(=O)O)c2ccccc12 [KSK85, (3R)-7-[(4-methoxynaphthalen-1-yl)methyl]-8-cyclopropyl-5-oxo-2,3-dihydro-5H-[1,3]thiazolo[3,2-a]pyridine-3-carboxylic acid] | significantly reduced | significantly reduced; also recorded: reduced compared to the inhibitory effects of C10 | inhibited | significantly enhanced | did not | not by CpG ODN | did not impact viability | – | inhibit | reduced | −1.14 | significantly reduced | 72.2 µM | abrogated pilus formation in the majority of H. pylori cells
